From US10689399B2, “Substituted 3,4,5,6,8,10,14,14a-octahydro-2h-2,6-methanopyrido[1′,2′:4,5]pyrazino[2,1-b][1,3]oxazocines and methods for treating viral infections” (Gilead Sciences, Inc., priority 2012, dated 2020) come the findings set out here.

Read-outs that look alike come from different tables or passages of the source.

In the experiment the test system is HIV-IIIb. The experiment can be described thus: Antiviral assay in MT4 cells. Type of experiment: cell-based. Conditions: Human immunodeficiency virus 1, IIIB, MT4, 120 h. As to the method: For the antiviral assay utilizing MT4 cells, 0.4 μL of 189X test concentration of 3-fold serially diluted compound in DMSO was added to 40 μL of cell growth medium (RPMI 1640, 10% FBS, 1% penicilline/Streptomycine, 1% L-Glutamine, 1% HEPES) in each well of 384-well assay plates (10 concentrations) in quidruplicate.
1 mL aliquots of 2×10^6 MT4 cells are pre-infected for 1 and 3 hours respectively at 37° C. with 25 μL (MT4) or of either cell growth medium (mock-infected) or a fresh 1:250 dilution of an HIV-IIIb concentrated ABI stock (0.004 m.o.i. for MT4 cells). Infected and uninfected cells are diluted in cell growth medium and 35 μL of 2000 (for MT4) cells is added to each well of the assay plates.
Assay plates were then incubated in a 37° C. incubator. After 5 days of incubation, 25 μL of 2× concentrated CellTiter-Glo™ Reagent (catalog # G7573, Promega Biosciences, Inc., Madison, Wis.) was added to each well of the assay plate. Cell lysis was carried out by incubating at room temperature for 2-3 minutes, and then chemiluminescence was read using the Envision reader (PerkinElmer).

The mark [1] stands for this setting: MT4 cells infected with HIV-IIIb, 5 days, CellTiter-Glo, read-out: EC50 nM in MT-4.
[2] abbreviates: read-out: EC50 nM in MT-4, MT4 cells infected with HIV-IIIb, 5 days, CellTiter-Glo.

Turning to `C[C@H]1CO[C@@H]2Cn3cc(C(=O)NC4(c5ccc(F)cc5F)CC4)c(=O)c(O)c3C(=O)N12` [Compound 37, (3S,11aR)—N-(1-(2,4-difluorophenyl)cyclopropyl)-6-hydroxy-3-methyl-5,7-dioxo-2,3,5,7,11,11a-hexahydrooxazolo[3,2-a]pyrido[1,2-d]pyrazine-8-carboxamide], the concentration for a half-maximal effect (EC50) under setting [1] turned out to be 10.2 nM.

Consider `C[C@H]1C[C@@H]2C[C@H]1O[C@H]1Cn3cc(C(=O)NCc4ccc(F)cc4F)c(=O)c(O)c3C(=O)N21` [Compound 39, (2R,3S,5R,13aS)—N-(2,4-difluorobenzyl)-8-hydroxy-3-methyl-7,9-dioxo-2,3,4,5,7,9,13,13a-octahydro-2,5-methanopyrido[1′,2′:4,5]pyrazino[2,1-b][1,3]oxazepine-10-carboxamide], for which, under setting [2], the EC50 was 3.6 nM.

Regarding `O=C(NCc1c(F)cc(F)cc1F)c1cn2c(c(O)c1=O)C(=O)N1[C@H]3CC[C@H](C3)[C@@H]1C2` [Compound 41, (1R,4S,12aR)-7-hydroxy-6,8-dioxo-N-(2,4,6-trifluorobenzyl)-1,2,3,4,6,8,12,12a-octahydro-1,4-methanodipyrido[1,2-a:1′,2′-d]pyrazine-9-carboxamide], the concentration giving a half-maximal response (EC50) under setting [1] turned out to be 2.1 nM.

For `O=C(NCc1c(F)cc(F)cc1F)c1cn2c(c(O)c1=O)C(=O)N1[C@H]3CC[C@H](C3)O[C@@H]1C2` [Compound 42, (2R,5S,13aR)-8-hydroxy-7,9-dioxo-N-(2,4,6-trifluorobenzyl)-2,3,4,5,7,9,13,13a-octahydro-2,5-methanopyrido[1′,2′:4,5]pyrazino[2,1-b][1,3]oxazepine-10-carboxamide], under setting [1], the EC50 came to 2.5 nM.

Take `C[C@@H](NC(=O)c1cn2c(c(O)c1=O)C(=O)N1[C@H]3CC[C@H](C3)[C@@H]1C2)c1ccc(F)cc1F` [Compound 43, (12aR)—N—((R)-1-(2,4-difluorophenyl)ethyl)-7-hydroxy-6,8-dioxo-1,2,3,4,6,8,12,12a-octahydro-1,4-methanodipyrido[1,2-a:1′,2′-d]pyrazine-9-carboxamide]: under setting [1], the EC50 was found to be 6.9 nM.

`O=C(NCc1ccc(F)c(F)c1F)c1cn2c(c(O)c1=O)C(=O)N1[C@@H]3CC[C@@H](C3)O[C@H]1C2` [Compound 44, (13aS)-8-hydroxy-7,9-dioxo-N-(2,3,4-trifluorobenzyl)-2,3,4,5,7,9,13,13a-octahydro-2,5-methanopyrido[1′,2′:4,5]pyrazino[2,1-b][1,3]oxazepine-10-carboxamide]: the EC50 under setting [1] was found to be 2.3 nM.

Regarding `O=C(NCc1c(F)cc(F)cc1F)c1cn2c(c(O)c1=O)C(=O)N1[C@@H]3CC[C@@H](C3)O[C@H]1C2` [Compound 45, (13aS)-8-hydroxy-7,9-dioxo-N-(2,4,6-trifluorobenzyl)-2,3,4,5,7,9,13,13a-octahydro-2,5-methanopyrido[1′,2′:4,5]pyrazino[2,1-b][1,3]oxazepine-10-carboxamide], under setting [1], the EC50 turned out to be 2.4 nM.

For `O=C(NCc1c(F)cccc1F)c1cn2c(c(O)c1=O)C(=O)N1[C@@H]3CC[C@@H](C3)O[C@H]1C2` [Compound 46, (13aS)—N-(2,6-difluorobenzyl)-8-hydroxy-7,9-dioxo-2,3,4,5,7,9,13,13a-octahydro-2,5-methanopyrido[1′,2′:4,5]pyrazino[2,1-b][1,3]oxazepine-10-carboxamide], the EC50 under setting [1] is 2.6 nM.

Turning to `O=C(NCc1ccc(F)cc1F)c1cn2c(c(O)c1=O)C(=O)N1[C@H]3CC[C@H](C3)[C@@H]1C2` [Compound 47, (1R,4S,12aR)—N-(2,4-difluorobenzyl)-7-hydroxy-6,8-dioxo-1,2,3,4,6,8,12,12a-octahydro-1,4-methanodipyrido[1,2-a:1′,2′-d]pyrazine-9-carboxamide], the concentration for a half-maximal effect (EC50) under setting [2] was found to be 1.9 nM.

On to `O=C(NCc1ncccc1C(F)(F)F)c1cn2c(c(O)c1=O)C(=O)N1[C@@H]3CC[C@@H](C3)O[C@H]1C2` [Compound 49, (2 S,5R,13aS)-8-hydroxy-7,9-dioxo-N-((3-(trifluoromethyl)pyridin-2-yl)methyl)-2,3,4,5,7,9,13,13a-octahydro-2,5-methanopyrido[1%2′: 4,5]pyrazino[2,1-b][1,3]oxazepine-10-carboxamide], for which the 50% effective concentration (EC50) under setting [1] came to 33.3 nM.

`O=C(NCc1ccc(F)cc1OC1CC1)c1cn2c(c(O)c1=O)C(=O)N1[C@@H]3CC[C@@H](C3)O[C@H]1C2` [Compound 52, (2S,5R,13aS)—N-(2-cyclopropoxy-4-fluorobenzyl)-8-hydroxy-7,9-dioxo-2,3,4,5,7,9,13,13a-octahydro-2,5-methanopyrido[1%2′: 4,5]pyrazino[2,1-b][1,3]oxazepine-10-carboxamide]: the concentration giving a half-maximal response (EC50) under setting [1] stood at 15 nM.

Regarding `O=C(NCc1ccc(F)cc1OC1CC1)c1cn2c(c(O)c1=O)C(=O)N1[C@H]3CC[C@H](C3)O[C@@H]1C2` [Compound 53, (2R,5S,13aR)—N-(2-cyclopropoxy-4-fluorobenzyl)-8-hydroxy-7,9-dioxo-2,3,4,5,7,9,13,13a-octahydro-2,5-methanopyrido[1%2′: 4,5]pyrazino[2,1-b][1,3]oxazepine-10-carboxamide], under setting [1], the EC50 amounted to 14.3 nM.

Regarding `O=C(N[C@@H](c1ccc(F)cc1F)C(F)(F)F)c1cn2c(c(O)c1=O)C(=O)N1C(C2)O[C@@H]2CC[C@H]1C2` (stereo partly drawn) [Compound 54, (2R,5S)—N—((S)-1-(2,4-difluorophenyl)-2,2,2-trifluoroethyl)-8-hydroxy-7,9-dioxo-2,3,4,5,7,9,13,13a-octahydro-2,5-methanopyrido[1′,2′:4,5]pyrazino[2,1-b][1,3]oxazepine-10-carboxamide], the EC50 under setting [1] was 15.6 nM.

Take `O=C(NCc1c(F)cc(F)cc1F)c1cn2c(c(O)c1=O)C(=O)N1[C@H]3CC[C@H](C3)[C@H]1C2` [Compound 55, (1R,4S,12aS)-7-hydroxy-6,8-dioxo-N-(2,4,6-trifluorobenzyl)-1,2,3,4,6,8,12,12a-octahydro-1,4-methanodipyrido[1,2-a:1′,2′-d]pyrazine-9-carboxamide]: under setting [1], the EC50 worked out at 1.5 nM.

Consider `O=C(NCc1c(F)cc(F)cc1F)c1cn2c(c(O)c1=O)C(=O)N1[C@@H]3C[C@H]([C@@H]1C2)C(F)(F)C3` [Compound 57, (1R,4R,12aR)-2,2-difluoro-7-hydroxy-6,8-dioxo-N-(2,4,6-trifluorobenzyl)-1,2,3,4,6,8,12,12a-octahydro-1,4-methanodipyrido[1,2-a:1′,2′-d]pyrazine-9-carboxamide], for which, under setting [1], the EC50 was determined as 2.3 nM.

`O=C(NCc1ccc(F)c(Cl)c1F)c1cn2c(c(O)c1=O)C(=O)N1[C@@H]3C[C@H]([C@@H]1C2)C(F)(F)C3` [Compound 58, (1R,4R,12aR)—N-(3-chloro-2,4-difluorobenzyl)-2,2-difluoro-7-hydroxy-6,8-dioxo-1,2,3,4,6,8,12,12a-octahydro-1,4-methanodipyrido[1,2-a:1′,2′-d]pyrazine-9-carboxamide]: the half-maximal effective concentration (EC50) under setting [1] was found to be 1.5 nM.

As for `O=C(NCc1c(F)cc(F)cc1F)c1cn2c(c(O)c1=O)C(=O)N1[C@@H]3C[C@@H]([C@H](F)C3)[C@@H]1C2` [Compound 59, (1R,2R,4R,12aR)-2-fluoro-7-hydroxy-6,8-dioxo-N-(2,4,6-trifluorobenzyl)-1,2,3,4,6,8,12,12a-octahydro-1,4-methanodipyrido[1,2-a:1′,2′-d]pyrazine-9-carboxamide], under setting [1], the EC50 was determined as 3.1 nM.

Turning to `O=C(NCc1cccc(Cl)c1Cl)c1cn2c(c(O)c1=O)C(=O)N1[C@H]3CC[C@H](C3)[C@@H]1C2` [Compound 60, (1R,4S,12aR)—N-(2,3-dichlorobenzyl)-7-hydroxy-6,8-dioxo-1,2,3,4,6,8,12,12a-octahydro-1,4-methanodipyrido[1,2-a:1′,2′-d]pyrazine-9-carboxamide], the EC50 under setting [1] turned out to be 2.1 nM.

With `O=C(NCc1ccc(F)c(Cl)c1F)c1cn2c(c(O)c1=O)C(=O)N1[C@H]3CC[C@H](C3)[C@H]1C2` [Compound 61, (1R,4S,12aS)—N-(3-chloro-2,4-difluorobenzyl)-7-hydroxy-6,8-dioxo-1,2,3,4,6,8,12,12a-octahydro-1,4-methanodipyrido[1,2-a:1′,2′-d]pyrazine-9-carboxamide], the 50% effective concentration (EC50) under setting [1] stood at 1.8 nM.

Regarding `O=C(NCc1ccc(F)cc1C(F)(F)F)c1cn2c(c(O)c1=O)C(=O)N1[C@H]3CC[C@H](C3)O[C@@H]1C2` [Compound 62, (2R,5S,13aR)—N-(4-fluoro-2-(trifluoromethyl)benzyl)-8-hydroxy-7,9-dioxo-2,3,4,5,7,9,13,13a-octahydro-2,5-methanopyrido[1′,2′:4,5]pyrazino[2,1-b][1,3]oxazepine-10-carboxamide], the EC50 under setting [1] is 9.2 nM.

As for `O=C(NCc1ccc(F)cc1Cl)c1cn2c(c(O)c1=O)C(=O)N1[C@H]3CC[C@H](C3)O[C@@H]1C2` [Compound 63, (2R,5S,13aR)—N-(2-chloro-4-fluorobenzyl)-8-hydroxy-7,9-dioxo-2,3,4,5,7,9,13,13a-octahydro-2,5-methanopyrido[1′,2′:4,5]pyrazino[2,1-b][1,3]oxazepine-10-carboxamide], the EC50 under setting [2] worked out at 2.5 nM.

As for `O=C(NCc1cc(F)c(F)cc1F)c1cn2c(c(O)c1=O)C(=O)N1[C@H]3CC[C@H](C3)O[C@@H]1C2` [Compound 64, (2R,5S,13aR)-8-hydroxy-7,9-dioxo-N-(2,4,5-trifluorobenzyl)-2,3,4,5,7,9,13,13a-octahydro-2,5-methanopyrido[1′,2′:4,5]pyrazino[2,1-b][1,3]oxazepine-10-carboxamide], the concentration giving a half-maximal response (EC50) under setting [1] came out at 3.5 nM.

Usually EC50 stands for the concentration at which the effect is half-maximal.
